From patent US20220267313A1, “DIHYDROPYRIMIDINE DERIVATIVES AND USES THEREOF IN THE TREATMENT OF HBV INFECTION OR OF HBV-INDUCED DISEASES” (Janssen Sciences Ireland Unlimited Company, priority 2019, published 2022) come the findings set out here.

A short description of data set [1]: Cytotoxicity determination by CCK-8 assay, HepG2.2.15 cells. The format is cell-based. The following applies: human, 6 days treatment. How it is done:
(§1) HepG2.2.15 (the HepG2.2.15 cell line can be produced by transfection of the HepG2 cell line as described in Sells, Chen, and Acs 1987 (Proc. Natl. Acad. Sci. USA 84: 1005-1009), and the HepG2 cell line is available from ATCC® under number HB-8065™)
(§2) HepG2.2.15 cells were plated into 96-well plate in 2% FBS culture medium at the density of 40,000 cells/well and 5,000 cells/well for HBV inhibitory activity and cytotoxicity determination, respectively. After incubation at 37° C., 5% CO2 overnight, cells were treated with medium containing compounds for 6 days with medium and compounds refreshed after 3 days of treatment. Each compound was tested in a 1:3 serial dilutions at 8 different concentrations in triplicate. The highest concentration of the compounds was 10 uM or 1 uM for anti-HBV activity assay and 100 uM for cytotoxicity determination.
Cell viability was determined by CCK-8 assay. After 6 days of compounds treatment, 20 μl CCK-8 reagents were added to each well of cytotoxicity assay plates. Cell plates were incubated at 37° C., 5% CO2 for 2.5 h. The absorbance at 450 nm wavelength and the absorbance at 630 nm wavelength as reference was measured.
(§3) EC50 and CC50 values are calculated by the GRAPHPAD PRISM software.
For orientation: Tetrazolium assays rely on reduction of a dye to a coloured formazan, in cell work by metabolically active cells.

The subject of another data set is HBV. In words: Anti-HBV activity: HBV DNA in culture medium by qPCR, HepG2.2.15 cells. Format: cell-based. The following applies: Hepatitis B virus, 144 h, 6 days treatment. The protocol:
as §1, §2
The change of HBV DNA level induced by the compounds was assessed by quantitative real-time polymerase chain reaction (qPCR). Briefly, the HBV DNA in the culture medium was extracted using QIAamp 96 DNA Blood Kit according to the manual and then quantified by real-time PCR assay using the primers and probe in the table 1 below.
as §3
A general note: Real-time PCR tracks product formation cycle by cycle.

Structures are written as SMILES.

Broadly, the CC50 is the concentration that lowers cell viability or growth by half. A higher CC50 goes with lower toxicity to the cells. As usually defined, the EC50 is the concentration needed to bring the measured effect to its halfway point. Higher therefore signals lower potency in that assay.

Consider `CCOC(=O)C1=C(C23C4C5C2C2C3C4C52C(=O)O)NC(c2nccs2)=N[C@@H]1c1ccc(F)cc1Cl` (stereo in doubt) [Ib-6, (2S,3S,5S,6S,7S,8S)-4-((S*)-6-(2-chloro-4-fluorophenyl)-5-(ethoxycarbonyl)-2-(thiazol-2-yl)-3,6-dihydropyrimidin-4-yl)cubane-1-carboxylic Acid], for which half-maximal cytotoxicity in data set [1] (CC50 at 6 days) was put at 0.018 µM. The EC50 in the data set on HBV is > 50 µM.

For the compound `CCOC(=O)C1=C(C23C4C5C2C2C3C4C52C(=O)O)NC(c2nccs2)=N[C@@H]1c1ccc(F)c(F)c1Cl` (stereo in doubt) [Ib-7, (2S,3S,5S,6S,7S,8S)-4-((S*)-6-(2-chloro-3,4-difluorophenyl)-5-(ethoxycarbonyl)-2-(thiazol-2-yl)-3,6-dihydropyrimidin-4-yl)cubane-1-carboxylic Acid], the midpoint of cytotoxicity in data set [1], the CC50 at 6 days, lay at 0.005 µM. In addition, the EC50 with HBV stood at 25 µM.

Compound `COC(=O)C1=C(C23C4C5C2C2C3C4C52C(=O)O)NC(c2nccs2)=N[C@@H]1c1ccc(F)c(F)c1Br` (stereo in doubt) [Ib-13, (2S,3S,5S,6S,7S,8S)-4-((S*)-6-(2-bromo-3,4-difluorophenyl)-5-(methoxycarbonyl)-2-(thiazol-2-yl)-3,6-dihydropyrimidin-4-yl)cubane-1-carboxylic Acid] gave a CC50 at 6 days in data set [1] of 0.027 µM. Further, in the data set on HBV, the EC50 is > 25 µM.

In turn, `CCOC(=O)C1=C(C23C4C5C2C2C3C4C52C(=O)O)NC(c2nccs2)=N[C@@H]1c1ccc(F)c(F)c1Br` (stereo in doubt) [Ib-14, (2S,3S,5S,6S,7S,8S)-4-((S*)-6-(2-bromo-3,4-difluorophenyl)-5-(ethoxycarbonyl)-2-(thiazol-2-yl)-3,6-dihydropyrimidin-4-yl)cubane-1-carboxylic Acid] had a CC50 at 6 days in data set [1] of 0.007 µM. A half-maximal response with HBV (EC50) required 41 µM.

Take `CCOC(=O)C1=C(C23C4C5C2C2C3C4C52C(=O)O)NC(c2nccs2)=N[C@@H]1c1cccc(F)c1Cl` (stereo in doubt) [Ib-15, (2S,3S,5S,6S,7S,8S)-4-((S*)-6-(2-chloro-3-fluorophenyl)-5-(ethoxycarbonyl)-2-(thiazol-2-yl)-3,6-dihydropyrimidin-4-yl)cubane-1-carboxylic Acid]: in data set [1], the CC50 at 6 days stood at 0.019 µM. Also, in the data set on HBV, the EC50 is > 50 µM.

As to `COC(=O)C1=C(C23C4C5C2C2C3C4C52C(=O)O)NC(c2nccs2)=N[C@@H]1c1ccc(F)cc1Br` (stereo in doubt) [Ib-16, (2S,3S,5S,6S,7S,8S)-4-((S*)-6-(2-bromo-4-fluorophenyl)-5-(methoxycarbonyl)-2-(thiazol-2-yl)-3,6-dihydropyrimidin-4-yl)cubane-1-carboxylic Acid], it took 0.071 µM to reach half-maximal cytotoxicity in data set [1] (CC50 at 6 days). The EC50 in the data set with HBV was > 50 µM.

The compound `COC(=O)C1=C(C23C4C5C2C2C3C4C52C(=O)O)NC(c2nccs2)=N[C@@H]1c1cccc(F)c1Br` (stereo in doubt) [Ib-17, (2S,3S,5S,6S,7S,8S)-4-((S*)-6-(2-bromo-3-fluorophenyl)-5-(methoxycarbonyl)-2-(thiazol-2-yl)-3,6-dihydropyrimidin-4-yl)cubane-1-carboxylic Acid] gave a CC50 at 6 days in data set [1] of 0.125 µM. The compound also yielded an EC50 with HBV of 25 µM.

The compound `COC(=O)C1=C(C23C4C5C2C2C3C4C52C(=O)O)NC(c2nccs2)=N[C@@H]1c1ccc(F)c(F)c1F` (stereo in doubt) [Ib-22, (S*)-4-((2,3,4-trifluorophenyl)-6-(methoxycarbonyl)-2-(thiazolel-4-yl))-1,4-dihydropyrimidin-4-yl)cubane-5-carboxylic Acid] registered a CC50 at 6 days in data set [1] of 0.282 µM. In addition, the EC50 in the data set with HBV is > 25 µM.

Regarding `CCOC(=O)C1=C(C23C4C5C2C2C3C4C52C(=O)O)NC(c2nccs2)=N[C@H]1c1ccc(F)cc1` (stereo in doubt) [Ib-24, (2S,3S,5S,6S,7S,8S)-4-((S*)-5-(ethoxycarbonyl)-6-(4-fluorophenyl)-2-(thiazol-2-yl)-3,6-dihydropyrimidin-4-yl)cubane-1-carboxylic Acid], the half-maximal cytotoxic concentration (CC50) at 6 days in data set [1] was 0.223 µM. Further, in the data set with HBV, the EC50 was > 25 µM.

`CCOC(=O)C1=C(C23C4C5C2C2C3C4C52C(=O)O)NC(c2nccs2)=N[C@@H]1c1ccccc1Cl` (stereo in doubt) [Ib-25, (2S,3S,5S,6S,7S,8S)-4-((S*)-6-(2-chlorophenyl)-5-(ethoxycarbonyl)-2-(thiazol-2-yl)-3,6-dihydropyrimidin-4-yl)cubane-1-carboxylic Acid] displayed a CC50 at 6 days in data set [1] of 0.065 µM. Besides, the EC50 in the data set on HBV is > 50 µM.
